Laboratory results taken from the supplement of paper PMC10307832.

compound: CC1=C(N=C(N=C1N)[C@H](CC(=O)N)NC[C@@H](C(=O)N)N)C(=O)N[C@@H]([C@H](C2=CN=CN2)OC3C(C(C(C(O3)CO)O)O)OC4C(C(C(C(O4)CO)O)OC(=O)N)O)C(=O)N[C@H](C)[C@H]([C@H](C)C(=O)N[C@@H]([C@@H](C)O)C(=O)NCCC5=NC(=CS5)C6=NC(=CS6)C(=O)NCCC[S+](C)C)O [Bleomycin] + CC(=O)c1c(C)c2cnc(Nc3ccc(N4CCNCC4)cn3)nc2n(C2CCCC2)c1=O [Palbociclib] (partner 0.5 µM); assay: relative viability (nuclei count vs DMSO), 5 days (fraction); higher = more cells survive; conditions: first compound 0.01 µM; main component drawn
In short: (§1)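 Lung cancer cell lines in 1536-well plates got either a single drug or a fixed anchor-drug dose together with five library-drug doses (not always all listed) in √10 steps, by pin tool, on the day after seeding. Nuclei were counted after 5 days, and relative viability is the treated-to-vehicle ratio of nuclei counts. Values are medians of duplicate plates.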

| Cell Line | relative viability |
| --- | --- |
| NCI-H358 | 0.142 |
| NCI-H661 | 0.39 |
| RERF-LC-KJ | 0.678 |

same assay, conditions: first compound 0.03162 µM; main component drawn

| Cell Line | relative viability |
| --- | --- |
| NCI-H358 | 0.178 |
| NCI-H661 | 0.398 |
| RERF-LC-KJ | 0.537 |

same assay, conditions: first compound 0.1 µM; main component drawn

| Cell Line | relative viability |
| --- | --- |
| NCI-H358 | 0.115 |
| NCI-H661 | 0.354 |
| RERF-LC-KJ | 0.444 |

same assay, conditions: first compound 0.3162 µM; main component drawn

| Cell Line | relative viability |
| --- | --- |
| NCI-H358 | 0.133 |
| NCI-H661 | 0.335 |
| RERF-LC-KJ | 0.185 |

same assay, conditions: first compound 1 µM; main component drawn

| Cell Line | relative viability |
| --- | --- |
| NCI-H358 | 0.111 |
| NCI-H661 | 0.312 |
| RERF-LC-KJ | 0.18 |

compound: CC1=C(N=C(N=C1N)[C@H](CC(=O)N)NC[C@@H](C(=O)N)N)C(=O)N[C@@H]([C@H](C2=CN=CN2)OC3C(C(C(C(O3)CO)O)O)OC4C(C(C(C(O4)CO)O)OC(=O)N)O)C(=O)N[C@H](C)[C@H]([C@H](C)C(=O)N[C@@H]([C@@H](C)O)C(=O)NCCC5=NC(=CS5)C6=NC(=CS6)C(=O)NCCC[S+](C)C)O [Bleomycin] + COc1cccc2cc(-c3nc([C@H]4CC[C@H](C(=O)O)CC4)n4ncnc(N)c34)[nH]c12 [OSI-027] (partner 0.5 µM); assay: as above; conditions: first compound 0.01 µM; main component drawn
In short: as §1

| Cell Line | relative viability |
| --- | --- |
| NCI-H358 | 0.73 |
| NCI-H661 | 0.632 |
| RERF-LC-KJ | 0.378 |

same assay, conditions: first compound 0.03162 µM; main component drawn

| Cell Line | relative viability |
| --- | --- |
| NCI-H358 | 0.67 |
| NCI-H661 | 0.683 |
| RERF-LC-KJ | 0.364 |

same assay, conditions: first compound 0.1 µM; main component drawn

| Cell Line | relative viability |
| --- | --- |
| NCI-H358 | 0.662 |
| NCI-H661 | 0.4 |
| RERF-LC-KJ | 0.314 |

same assay, conditions: first compound 0.3162 µM; main component drawn

| Cell Line | relative viability |
| --- | --- |
| NCI-H358 | 0.335 |
| NCI-H661 | 0.23 |
| RERF-LC-KJ | 0.244 |

same assay, conditions: first compound 1 µM; main component drawn

| Cell Line | relative viability |
| --- | --- |
| NCI-H358 | 0.185 |
| NCI-H661 | 0.235 |
| RERF-LC-KJ | 0.239 |

compound: CC1=C(N=C(N=C1N)[C@H](CC(=O)N)NC[C@@H](C(=O)N)N)C(=O)N[C@@H]([C@H](C2=CN=CN2)OC3C(C(C(C(O3)CO)O)O)OC4C(C(C(C(O4)CO)O)OC(=O)N)O)C(=O)N[C@H](C)[C@H]([C@H](C)C(=O)N[C@@H]([C@@H](C)O)C(=O)NCCC5=NC(=CS5)C6=NC(=CS6)C(=O)NCCC[S+](C)C)O [Bleomycin] + N=C(N)NC(=N)NCCc1ccccc1 [Phenformin] (partner 250 µM); assay: as above; conditions: first compound 0.01 µM; main component drawn
In short: as §1

| Cell Line | relative viability |
| --- | --- |
| NCI-H358 | 0.343 |
| NCI-H661 | 0.272 |
| RERF-LC-KJ | 0.287 |

same assay, conditions: first compound 0.03162 µM; main component drawn

| Cell Line | relative viability |
| --- | --- |
| NCI-H358 | 0.352 |
| NCI-H661 | 0.239 |
| RERF-LC-KJ | 0.271 |

same assay, conditions: first compound 0.1 µM; main component drawn

| Cell Line | relative viability |
| --- | --- |
| NCI-H358 | 0.325 |
| NCI-H661 | 0.232 |
| RERF-LC-KJ | 0.269 |

same assay, conditions: first compound 0.3162 µM; main component drawn

| Cell Line | relative viability |
| --- | --- |
| NCI-H358 | 0.171 |
| NCI-H661 | 0.216 |
| RERF-LC-KJ | 0.209 |

same assay, conditions: first compound 1 µM; main component drawn

| Cell Line | relative viability |
| --- | --- |
| NCI-H358 | 0.147 |
| NCI-H661 | 0.215 |
| RERF-LC-KJ | 0.183 |

compound: COc1cc([C@@H]2c3cc4c(cc3[C@@H](O[C@@H]3O[C@@H]5CO[C@@H](C)O[C@H]5[C@H](O)[C@H]3O)[C@H]3COC(=O)[C@H]23)OCO4)cc(OC)c1O [Etoposide] + N=C(N)NC(=N)NCCc1ccccc1 [Phenformin] (partner 250 µM); assay: as above; conditions: first compound 0.01 µM
In short: as §1

| Cell Line | relative viability |
| --- | --- |
| NCI-H358 | 0.341 |
| NCI-H661 | 0.283 |
| RERF-LC-KJ | 0.414 |

same assay, conditions: first compound 0.03162 µM

| Cell Line | relative viability |
| --- | --- |
| NCI-H358 | 0.402 |
| NCI-H661 | 0.289 |
| RERF-LC-KJ | 0.469 |

same assay, conditions: first compound 0.1 µM

| Cell Line | relative viability |
| --- | --- |
| NCI-H358 | 0.219 |
| NCI-H661 | 0.267 |
| RERF-LC-KJ | 0.42 |

same assay, conditions: first compound 0.3162 µM

| Cell Line | relative viability |
| --- | --- |
| NCI-H358 | 0.114 |
| NCI-H661 | 0.249 |
| RERF-LC-KJ | 0.36 |

same assay, conditions: first compound 1 µM

| Cell Line | relative viability |
| --- | --- |
| NCI-H358 | 0.0696 |
| NCI-H661 | 0.208 |
| RERF-LC-KJ | 0.329 |
